# Compound: COc1cccc2cc(-c3nc([C@H]4CC[C@H](C(=O)O)CC4)n4ncnc(N)c34)[nH]c12 [OSI-027] + CC(=O)Nc1cccc(-n2c(=O)n(C3CC3)c(=O)c3c(Nc4ccc(I)cc4F)n(C)c(=O)c(C)c32)c1 [Trametinib] (partner 0.02 µM)
# Experiment: relative viability (nuclei count vs DMSO), 5 days (fraction); higher = more cells survive
# Settings: first compound 0.01 µM
# How it was run: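 Medians of duplicate plates are given as relative viability. That measure is the nuclei count in treated wells divided by the count in vehicle wells. Counts were taken on 4× images of lung cancer cell lines in 1536-well plates, 5 days after pin-tool dosing the day after seeding with one drug alone or a fixed anchor-drug dose plus five library-drug doses (not always all listed) in √10 steps.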
row,Cell Line,relative viability
1,NCI-H23,0.313
2,HCC-827,0.555
3,NCI-H2347,0.29
4,LXF-289,0.681
5,NCI-H1666,0.865
6,RERF-LC-KJ,0.709
7,NCI-H650,0.915
8,NCI-H322M,0.509
9,201T,0.742
10,SW 900,0.933
11,SK-MES-1,0.531
12,NCI-H441,0.346
13,HCC-78,0.689

# Same assay, conditions: first compound 0.03162 µM
row,Cell Line,relative viability
1,NCI-H23,0.42
2,HCC-827,0.491
3,NCI-H2347,0.25
4,LXF-289,0.707
5,NCI-H1666,0.848
6,RERF-LC-KJ,0.832
7,NCI-H650,1.11
8,NCI-H322M,0.543
9,201T,0.716
10,SW 900,0.866
11,SK-MES-1,0.523
12,NCI-H441,0.434
13,HCC-78,0.646

# Same assay, conditions: first compound 0.1 µM
row,Cell Line,relative viability
1,NCI-H23,0.349
2,HCC-827,0.45
3,NCI-H2347,0.268
4,LXF-289,0.752
5,NCI-H1666,0.843
6,RERF-LC-KJ,0.815
7,NCI-H650,0.909
8,NCI-H322M,0.496
9,201T,0.717
10,SW 900,0.789
11,SK-MES-1,0.478
12,NCI-H441,0.486
13,HCC-78,0.74

# Same assay, conditions: first compound 0.3162 µM
row,Cell Line,relative viability
1,NCI-H23,0.26
2,HCC-827,0.433
3,NCI-H2347,0.278
4,LXF-289,0.612
5,NCI-H1666,0.765
6,RERF-LC-KJ,0.667
7,NCI-H650,0.851
8,NCI-H322M,0.482
9,201T,0.717
10,SW 900,0.712
11,SK-MES-1,0.483
12,NCI-H441,0.362
13,HCC-78,0.637

# Same assay, conditions: first compound 1 µM
row,Cell Line,relative viability
1,NCI-H23,0.28
2,HCC-827,0.309
3,NCI-H2347,0.205
4,LXF-289,0.357
5,NCI-H1666,0.692
6,RERF-LC-KJ,0.406
7,NCI-H650,0.454
8,NCI-H322M,0.455
9,201T,0.674
10,SW 900,0.608
11,SK-MES-1,0.394
12,NCI-H441,0.253
